Measured values as given in PMC3565020 (ChemMedChem, 2012).
Where “and” joins values, the source holds several entries; their conditions need not be identical. Identical values can stand only once. Like-named read-outs stand apart in the source and are kept apart here.

How the values were obtained:
Sulforhodamine = assay type: cell-based, human; conditions: human
[1] = tested on: L. donovani axenic amastigotes; assay: L. donovani axenic amastigote viability, 72 hour Alamar blue assay; assay type: cell-based, Leishmania donovani
J-774 murine macrophages = assay: Cytotoxicity against murine macrophage cells; conditions: for Cytotoxicity J-774 murine macrophages CC50 / CC50: J-774, Alamar blue; for CC50: read-out: Cytotoxicity J-774 murine macrophages CC50
[2] = tested on: LU-1 human lung carcinoma cell line; assay: Sulforhodamine; assay type: cell-based; conditions: for Cytotoxicity LU-1 CC50 / CC50: LU-1 human lung carcinoma, SRB; for CC50: read-out: Cytotoxicity LU-1 CC50
VERO cells = conditions: previous report; cited from earlier work
[3] = tested on: L. donovani promastigotes; assay: L. donovani promastigote viability, 72 hour Alamar blue assay; assay type: cell-based, Leishmania donovani; conditions: for IC50: read-out: L. donovani Promastigotes IC50
[4] = Cytotoxicity against murine macrophage cells; conditions: mouse
[5] = 72 hour Alamar blue, pH 5.5, 37°C
[6] = read-out: L. donovani Axenic amastigotes IC50, 72 hour Alamar blue, pH 5.5, 37°C

| Compound | CC50 (Sulforhodamine; LU-1 lung carcinoma cells) | L. donovani Axenic amastigotes IC50 [1, 5] | Cytotoxicity J-774 murine macrophages CC50 (J-774 murine macrophages) | Cytotoxicity LU-1 CC50 [2] | L. donovani Promastigotes IC50 ([3]; 72 hour Alamar blue, 26°C) | IC50 ([3]; 72 hour Alamar blue, 26°C) [µM] | IC50 [1, 6] [µM] | CC50 (J-774 murine macrophages) [µM] | CC50 [2] [µM] | other results |
| --- | --- | --- | --- | --- | --- | --- | --- | --- | --- | --- |
| C[C@@H]1[C@H](O)[C@@H](C)/C=C/C=C/C=C/C=C/C=C/C=C/C=C/[C@H](O[C@@H]2O[C@H](C)[C@@H](O)[C@H](N)[C@@H]2O)C[C@@H]2O[C@](O)(C[C@@H](O)C[C@@H](O)[C@H](O)CC[C@@H](O)C[C@@H](O)CC(=O)O[C@H]1C)C[C@H](O)[C@H]2C(=O)O [Amphotericin B, reference compound] | > 40 µg/mL |  |  |  |  |  |  |  |  |  |
| COc1ccc2[nH]c3ccc(C=O)cc3c2c1 [Compound 5g] |  | NA^[g] (NA (Not active): IC50 > 40 μg/mL) | NC (NC (Noncytotoxic): CC50 > 40 μg/mL) | NC^[h] (NC (Noncytotoxic): CC50 > 40 μg/mL) | 27 µg/mL | 120 |  |  |  | CC values in VERO cells (VERO cells): > 102 µg/mL |
| COc1ccc2[nH]c3cc(O)c(C=O)cc3c2c1 [Compound 6a, lansine] |  |  |  |  |  |  |  |  |  | IC50 ([1]; Leishmania donovani, 72 h, pH 5.5, read-out: L. donovani Axenic amastigotes IC50): 11 µg/mL and 45.6 µM; CC50 [4]: 20 µg/mL and 82.9 µM; SI-2 (Selectivity Index-2) = CC50 (J-774)/IC50 (amastigotes) (J-774 murine macrophages; J-774 vs axenic amastigotes): 2; SI-1 (Selectivity Index-1) = CC50 (LU-1)/IC50 (amastigotes) ([2]; LU-1 vs axenic amastigotes): 2; CC50 (Sulforhodamine): 16.5 µg/mL and 68.4 µM; CC values in VERO cells (VERO cells): > 102 µg/mL; IC50 ([3]; Leishmania donovani, 72 h): 89.1 µM and 21.5 µg/mL |
| O=Cc1cc2c(cc1O)[nH]c1ccccc12 [Compound 6b] |  | 11.0 µg/mL | 21 µg/mL | 45 µg/mL | 35.4 µg/mL | 168 | 52 | 99.4 | 213 |  |
| O=Cc1cc2c(cc1O)[nH]c1ccc(C(F)(F)F)cc12 [Compound 6c] |  | 6.0 µg/mL | 9.8 µg/mL | 21 µg/mL | 7.3 µg/mL | 26.2 | 21.5 | 35.1 | 75.2 |  |
| O=Cc1cc2c(cc1O)[nH]c1ccc(OC(F)(F)F)cc12 [Compound 6d] |  | 2.1 µg/mL | 8.0 µg/mL | 45 µg/mL | 3.7 µg/mL | 12.6 | 7.1 | 27.1 | 152 |  |
| O=Cc1cc2c(cc1O)[nH]c1ccc([N+](=O)[O-])cc12 [Compound 6f] |  | NA (NA (Not active): IC50 > 40 μg/mL) | 20.0 µg/mL | NC (NC (Noncytotoxic): CC50 > 40 μg/mL) | NA (NA (Not active): IC50 > 40 μg/mL) |  |  | 78 |  |  |
| O=Cc1cc2c(cc1O)[nH]c1ccc(O)cc12 [Compound 7, 2,6-Dihydroxy-9H-carbazole-3-carbaldehyde] | > 40 µg/mL |  |  |  |  |  |  |  |  | CC50 ([4]; J774 macrophage cells): 32 µg/mL and 141 µM |
| COc1ccc2[nH]c3cc(OC)c(C=O)cc3c2c1 [Compound 8, 2,6-Dimethoxy-9H-carbazole-3-carbaldehyde] | > 40 µg/mL |  |  |  |  |  |  |  |  | CC50 ([4]; J774 macrophage cells): > 40 µg/mL |
| COc1ccc2c(c1)c1cc(C=O)c(OC)cc1n2C [Compound 9, 2,6-dimethoxy-9-methyl-9H-carbazole-3-carbaldehyde] | > 40 µg/mL |  |  |  |  |  |  |  |  | CC50 ([4]; J774 macrophage cells): > 40 µg/mL |
| COc1ccc2[nH]c3cc(O)c(CO)cc3c2c1 [Compound 11] |  | 10.0 µg/mL | NC (NC (Noncytotoxic): CC50 > 40 μg/mL) | > 60 µg/mL | NA (NA (Not active): IC50 > 40 μg/mL) |  | 41.1 |  | > 247 |  |
| COc1ccc2[nH]c3cc(O)c(C)cc3c2c1 [Compound 13] |  | 11.5 µg/mL | 20 µg/mL | 30 µg/mL | 17.7 µg/mL | 78 | 50.6 | 88.1 | 132 |  |
| CCn1c2ccccc2c2cc(C=O)ccc21 [Compound 14] |  | NA (NA (Not active): IC50 > 40 μg/mL) | 21 µg/mL | 25 µg/mL | 38.6 µg/mL | 173 |  | 94.1 | 112 |  |
| Oc1ccc2c(c1)[nH]c1ccccc12 [Compound 15] |  | 10.0 µg/mL | NC (NC (Noncytotoxic): CC50 > 40 μg/mL) | 40 µg/mL | 28.5 µg/mL | 156 | 54.6 |  | 218 |  |
| Cn1c2ccccc2c2ccccc21 [Compound 16] |  | NA (NA (Not active): IC50 > 40 μg/mL) | NC (NC (Noncytotoxic): CC50 > 40 μg/mL) | NC (NC (Noncytotoxic): CC50 > 40 μg/mL) | 37.0 µg/mL | 204 |  |  |  |  |
| N=C(N)c1ccc(OCCCCCOc2ccc(C(=N)N)cc2)cc1 [Pentamidine, reference compound] | 0.5 µg/mL and 1.5 µM |  |  |  |  | 3.5 | 2.9 |  |  |  |
